Data on eight compounds can be found in patent US20060178357A1, “Chphalosporin-derived mercaptans as inhibitors of serine and metallo-beta-lactamases” (priority 2005, published 2006).

Assay [1] concerns the target Enterobacter cloacae P99 (class C) β-lactamase (Enterobacter cloacae, UniProt P05364). Briefly: β-lactamase inhibition (IC50, nitrocefin hydrolysis) against class C serine β-lactamase. In kind it is biochemical. Particulars: 4 min incubation of inhibitor and enzyme, substrate nitrocefin, 480 nm; comparison in words summarising Table 1. As for the experimental part:
(§1) Representative compounds of the invention were evaluated as inhibitors of two serine β-lactamases: Enterobacter cloacae P99 (class C), TEM-1 (class A), as well as two class B enzymes: the L1 metallo-β-lactamse derived from Stenotrophomonas maltophilia) and the metallo-β-lactamase derived from the Bacillus cereus microorganism. The IC50 value of each compound was determined as follows. Assay method involves 4 min incubation of a solution of inhibitor and enzyme (0.1 to 1 μM in enzyme), followed by transfer of an aliquot into a dilute solution of the substrate nitrocefin. Hydrolysis is monitored spectrophotometrically at 480 nm for 1 min. The rate is constant throughout this period. Error is ±10%, based on multiple experiments.

Assay [2] has as its system class B β-lactamases (L1 metallo-β-lactamase derived from Stenotrophomonas maltophilia; metallo-β-lactamase derived from Bacillus cereus). Briefly: β-lactamase inhibition (IC50, nitrocefin hydrolysis) against class B metallo-β-lactamases. Particulars: 4 min incubation of inhibitor and enzyme, substrate nitrocefin, 480 nm; statement in words summarising Table 1. Type of assay: biochemical. The method, then: as §1

Enterobacter cloacae P99 (class C) β-lactamase, sequence (P05364 21-381): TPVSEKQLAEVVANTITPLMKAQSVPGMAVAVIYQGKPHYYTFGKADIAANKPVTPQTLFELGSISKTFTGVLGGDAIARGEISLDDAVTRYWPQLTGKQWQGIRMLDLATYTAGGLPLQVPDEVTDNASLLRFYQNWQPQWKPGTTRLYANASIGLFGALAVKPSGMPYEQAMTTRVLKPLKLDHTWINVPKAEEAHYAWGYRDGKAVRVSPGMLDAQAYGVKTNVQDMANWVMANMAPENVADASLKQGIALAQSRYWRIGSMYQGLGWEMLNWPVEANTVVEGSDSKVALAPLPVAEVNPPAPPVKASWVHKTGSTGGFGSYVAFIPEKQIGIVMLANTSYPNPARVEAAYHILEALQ

In the case of `CC(=O)OCC1=C(C(=O)[O-])N2C(=O)C(CS)C2SC1.[Na+]` (stereo not drawn) [Compound 26, Sodium salt of 7α-(mercaptomethyl)cephalosporanate], in assay [1], the “inhibition activity against a representative class C β-lactamase relative to tazobactam” value is recorded as “superior to tazobactam”. The “ability to inhibit the class B β-lactamases” value in assay [2] is recorded as “possess the ability to inhibit the class B β-lactamases”.

For the compound `CC(=O)OCC1=C(C(=O)[O-])N2C(=O)C(CS)C2[S+]([O-])C1.[Na+]` (stereo not drawn) [Compound 29, Sodium salt of 7α-(mercaptomethyl)cephalosporanate-1α-oxide], in assay [1], the “inhibition activity against a representative class C β-lactamase relative to tazobactam” value is given as “superior to tazobactam”. Besides, the “ability to inhibit the class B β-lactamases” value in assay [2] is recorded as “possess the ability to inhibit the class B β-lactamases”. On to `CC(=O)OCC1=C(C(=O)[O-])N2C(=O)C(CS)C2[S+]([O-])C1.[Na+]` (stereo not drawn) [Compound 19, Sodium salt of 7α-(mercaptomethyl)cephalosporanate-1β-oxide], for which, in assay [2], the “ability to inhibit the class B β-lactamases” value was “possess the ability to inhibit the class B β-lactamases”. Take `CC(=O)OCC1=C(C(=O)[O-])N2C(=O)C(CS)C2S(=O)(=O)C1.[Na+]` (stereo not drawn) [Compound 22, Sodium salt of 7α-(mercaptomethyl)cephalosporanate-1,1-dioxide]: in assay [1], the “inhibition activity against a representative class C β-lactamase relative to tazobactam” value was “superior to tazobactam”. In addition, the “ability to inhibit the class B β-lactamases” value in assay [2] is on record as “possess the ability to inhibit the class B β-lactamases”. For the compound `CC(=O)OCC1=C(C(=O)[O-])N2C(=O)C(CS)C2[S+]([O-])C1.[Na+]` (stereo not drawn) [Compound 17, Sodium salt of 7β-(mercaptomethyl)cephalosporanate-1β-oxide], the “ability to inhibit the class B β-lactamases” value in assay [2] was “possess the ability to inhibit the class B β-lactamases”. Still for that read-out and setting: with `C[C@]1(Cn2ccnn2)[C@H](C(=O)O)N2C(=O)C[C@H]2S1(=O)=O` [tazobactam, reference compound] the entry was “does not possess such ability”. For the compound `CC(=O)OCC1=C(C(=O)[O-])N2C(=O)C(CS)C2S(=O)(=O)C1.[Na+]` (stereo not drawn) [Compound 15, Sodium salt of 7β-(mercaptomethyl)cephalosporanate-1,1-dioxide], the “ability to inhibit the class B β-lactamases” value in assay [2] was “possess the ability to inhibit the class B β-lactamases”. On the same count and under the same terms, with `CC(=O)OCC1=C(C(=O)[O-])N2C(=O)C(CS)C2SC1.[Na+]` (stereo not drawn) [Compound 12, Sodium salt of 7β-(mercaptomethyl)cephalosporanate] the entry was “possess the ability to inhibit the class B β-lactamases”.
